Measured values from patent US20240199702A1, “CELL-PERMEABLE CYCLIC PEPTIDES AND USES THEREOF” (Unnatural Products Inc., priority 2021, published 2024).
Where a SMILES comes first, the peptide text is derived from it. [ ]: non-standard residue; d: D form. The star is where a group is joined. Ala(4-thiazolyl) = N[C@@H](Cc1cscn1)C(=O)O; NMeAla(cPent) = CN[C@@H](CC1CCCC1)C(=O)O; Phe(4-Cl) = N[C@@H](Cc1ccc(Cl)cc1)C(=O)O; Phe(4-F) = N[C@@H](Cc1ccc(F)cc1)C(=O)O; NMeF = CN[C@@H](Cc1ccccc1)C(=O)O; NMeT = CN[C@H](C(=O)O)[C@@H](C)O; Nicotinoyl = O=C(c1cccnc1)*; hSer = N[C@@H](CCO)C(=O)O; NMeA = CN[C@@H](C)C(=O)O; dNMeA = CN[C@H](C)C(=O)O; Bz = O=C(c1ccccc1)*; Nme = COCCNCC(=O)O; Sar = CNCC(=O)O

Assays:
[1] = biological target: T1, Human MDM2 (HDM2) 1-116 (Homo sapiens, UniProt Q00987); test: Fluorescence Polarization Assay 1 (MDM2/p53 peptide); assay type: binding; conditions: FAM-labeled p53 peptide, 60 minutes
T1 construct: Human MDM2 (HDM2) 1-116
Experimental: Fluorescence Polarization Assay 1
(§1) Human MDM2 (HDM2) 1-116 (20 μL) and FAM-labeled GGTSFAEYWNLLSP-NH2, 10 nM and 5 nM respectively in 10 mM Tris, 50 mM NaCl, 0.01% Tween20, and 1 mM DTT at pH 7.4 were dispensed into an opaque, black, 384 well plate. Compounds dissolved in DMSO were pin transferred (˜100-200 nL) to the 384 well plate containing the MDM2/p53 solution. After incubation for 60 minutes, the fluorescence polarization was read on a Molecular Devices SpectraMax plate reader equipped with a Fluorescein FP cartridge. In addition to probe alone (positive control) and probe/MDM2 (negative control), a titration of linear p53(18-26) was included on every plate as an additional control. IC50 values were fit using either Prism or Collaborative Drug Discovery.

[2] = biological target: T2, Human MDM4 (HDM4) 1-114 (Homo sapiens, UniProt O15151); test: Fluorescence Polarization Assay 2 (MDM4/p53 peptide); assay type: binding; conditions: FAM-labeled p53 peptide, 60 minutes
T2 construct: Human MDM4 (HDM4) 1-114
T2 sequence (O15151 1-114): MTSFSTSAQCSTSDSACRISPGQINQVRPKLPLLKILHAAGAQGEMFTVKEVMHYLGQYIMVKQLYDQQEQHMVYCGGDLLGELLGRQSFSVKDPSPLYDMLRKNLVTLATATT
Experimental: Fluorescence Polarization Assay 2
as §1, with “MDM4 (HDM4) 1-114” for “MDM2 (HDM2) 1-116”, “GGTSFAEYWNLLSP —NH2, 20” for “GGTSFAEYWNLLSP-NH2, 10”, “(−100-200” for “(˜100-200”, “MDM4/p53” for “MDM2/p53”, “probe/MDM4” for “probe/MDM2”

T1 sequence (Q00987 1-116): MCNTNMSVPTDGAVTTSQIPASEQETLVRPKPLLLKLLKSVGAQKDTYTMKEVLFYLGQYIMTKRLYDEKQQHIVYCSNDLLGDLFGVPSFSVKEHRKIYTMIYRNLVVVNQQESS

Row | Structure (SMILES) | IC50 [1] [nM] | IC50 [2] [nM]
1 | COCC[C@@H]1NC(=O)[C@H]2CCCN2C(=O)[C@H](Cc2ccccc2)N(C)C(=O)[C@H](Cc2ccc(Cl)cc2)NC(=O)[C@H]([C@@H](C)OC(=O)c2ccccc2)NC(=O)[C@H](Cc2ccc(F)cc2)NC(=O)CN(CCOC)C(=O)[C@@H](C)N(C)C(=O)[C@H](Cc2cscn2)NC(=O)[C@H](C)N(C)C1=O [compound 2] (cyclo([Ala(4-thiazolyl)][dNMeA][Nme][Phe(4-F)]T(Bz)[Phe(4-Cl)][NMeF][dP][hSer](Me)[NMeA])) | < 25 | < 25
2 | COCC[C@@H]1NC(=O)[C@H]2CCCN2C(=O)[C@H](Cc2ccccc2)N(C)C(=O)[C@H](Cc2ccc(Cl)cc2)NC(=O)[C@H]([C@@H](C)OC(=O)c2cccnc2)NC(=O)[C@H](Cc2ccc(F)cc2)NC(=O)CN(CCOC)C(=O)[C@@H](C)N(C)C(=O)[C@H](Cc2cscn2)NC(=O)[C@H](C)N(C)C1=O [compound 3] (cyclo([Ala(4-thiazolyl)][dNMeA][Nme][Phe(4-F)]T(Nicotinoyl)[Phe(4-Cl)][NMeF][dP][hSer](Me)[NMeA])) | < 25 | 50 to 100
3 | COCC[C@@H]1NC(=O)[C@H]2CCCN2C(=O)[C@H](Cc2ccccc2)N(C)C(=O)[C@H](Cc2ccc(Cl)cc2)NC(=O)[C@H](CC2CCCC2)N(C)C(=O)[C@H](Cc2ccc(F)cc2)NC(=O)CN(CCOC)C(=O)[C@@H](C)N(C)C(=O)[C@H](Cc2cscn2)NC(=O)[C@H](C)N(C)C1=O [compound 10] (cyclo([Ala(4-thiazolyl)][dNMeA][Nme][Phe(4-F)][NMeAla(cPent)][Phe(4-Cl)][NMeF][dP][hSer](Me)[NMeA])) | < 25 | ≥ 100

More lines, now with the values ahead:

Row | IC50 [1] [nM] | IC50 [2] [nM] | Structure (SMILES)
4 | < 25 | 25 to 50 | COCC[C@@H]1NC(=O)[C@H]2CCCN2C(=O)[C@H](Cc2ccccc2)N(C)C(=O)[C@H](Cc2ccc(Cl)cc2)NC(=O)[C@H]([C@@H](C)OC(C)=O)NC(=O)[C@H](Cc2ccc(F)cc2)NC(=O)CN(CCOC)C(=O)[C@@H](C)N(C)C(=O)[C@H](Cc2cscn2)NC(=O)[C@H](C)N(C)C1=O [compound 1] (cyclo([Ala(4-thiazolyl)][dNMeA][Nme][Phe(4-F)]T(Ac)[Phe(4-Cl)][NMeF][dP][hSer](Me)[NMeA]))
5 | < 25 | 50 to 100 | COCC[C@@H]1NC(=O)[C@H]2CCCN2C(=O)[C@H](Cc2ccccc2)N(C)C(=O)[C@H](Cc2ccc(Cl)cc2)NC(=O)[C@H]([C@@H](C)OC)N(C)C(=O)[C@H](Cc2ccc(F)cc2)NC(=O)CN(CCOC)C(=O)[C@@H](C)N(C)C(=O)[C@H](Cc2cscn2)NC(=O)[C@H](C)N(C)C1=O [compound 20] (cyclo([Ala(4-thiazolyl)][dNMeA][Nme][Phe(4-F)][NMeT](Me)[Phe(4-Cl)][NMeF][dP][hSer](Me)[NMeA]))
6 | < 25 | 25 to 50 | COCC[C@@H]1NC(=O)[C@H]2CCCN2C(=O)[C@H](Cc2ccccc2)N(C)C(=O)[C@H](Cc2ccc(Cl)cc2)NC(=O)[C@H](C(C)C)NC(=O)[C@H](Cc2ccc(F)cc2)NC(=O)CN(C)C(=O)[C@@H](C)N(C)C(=O)[C@H](Cc2cscn2)NC(=O)[C@H](C)N(C)C1=O [compound 13] (cyclo([Ala(4-thiazolyl)][dNMeA][Sar][Phe(4-F)]V[Phe(4-Cl)][NMeF][dP][hSer](Me)[NMeA]))
7 | < 25 | 50 to 100 | COCC[C@@H]1NC(=O)[C@H]2CCCN2C(=O)[C@H](Cc2ccccc2)N(C)C(=O)[C@H](Cc2ccc(Cl)cc2)NC(=O)[C@H]([C@@H](C)O)N(C)C(=O)[C@H](Cc2ccc(F)cc2)NC(=O)CN(CCOC)C(=O)[C@@H](C)N(C)C(=O)[C@H](Cc2cscn2)NC(=O)[C@H](C)N(C)C1=O [compound 19] (cyclo([Ala(4-thiazolyl)][dNMeA][Nme][Phe(4-F)][NMeT][Phe(4-Cl)][NMeF][dP][hSer](Me)[NMeA]))
